Test results: patent US4410546A, “Antiallergic compositions” (Hisamitsu Pharmaceutical Co., Inc., priority 1981, dated 1983)
Read-outs that look alike come from different tables or passages of the source.

What was measured:
[1] = tested on: lung fragment of guinea pigs; assay: Histamine release on lung fragment of guinea pigs; type: cell-based, guinea pig; settings: sodium salt, induced by ovalbumin 10^-6 g/ml
Procedure: The lungs of guinea pigs sensitized actively by ovalbumin were thoroughly irrigated by Tyrode's solution and then cut to obtain about 1-2 mm thick pieces. Two hundred (200) mg of the thus obtained fragments were accurately weighed out, immersed in Tyrode's solution and preincubated at 37° C. for 5 minutes. Then, the compounds of the formula (I) were each suspended in saline solution containing 0.5% of tragacanth gum, incubated at 37° C. for 20 minutes and induced by 10^-6 g/ml of ovalbumin.
Following 20 minutes' incubation, the siolutin was chilled in ice and then measured for the amount of released histamine in the medium and remaining in the tissue by the use of fluorometric assay in accordance with the Shore et al's method (J. Pharmacol. exp. Ther. 127, 182, 1959).

mesenteric mast cells = assay: Test for the degranulation of mesenteric mast cells in rats; type: cell-based, rat; settings: 10^-4 g/ml; induced by 5×10^-6 g/ml DNP-As
Procedure: Rats were passively sensitized at their abdominal cavity by anti-DNP-As rat serum, 24 hours after which the mesenterium of the rats was enucleated. Then, 100 mg of the mesenterium were accurately weighed out, immersed in Tyrode's solution and preincubated at 37° C. for 5 minutes. Thereafter, the immersed solution was added to the antiallergic compounds of the formula (I) suspended in saline solution containing 0.5% of tragacanth gum, incubated at 37° C. for 20 minutes and then induced by 5×10^-6 g/ml of DNP-As. After 20 minutes' incubation, the solution was chilled in ice, and the mesenterium so reacted was dyed by the use of formalin (10% formaldehyde content) and an 0.1% tolwdine blue solution containing 0.1% of acetic acid, treated with ethanol and xylene and measured for degranulation by mirror inspection ([…]).

[2] = tested on: reversed cutaneous anaphylaxis; assay: Reversed cutaneous anaphylaxis test on rats; type: in vivo, rat (male Wistar strain); settings: 100 mg/kg oral, one hour prior to anti-rat rabbit serum; for inhibition at 100 mg/kg: 1 h, read-out: Inhibition rate
Procedure: In accordance with Yamazaki et al's method (Folia Pharmacol. Jap. 60, .sctn.65, 1964) obtained by improving Ungar et al's method (Arch. intern. Pharmacodyn. 123, 71, 1959), male Wistar strain rats, each weighing about 100 g, were tested as follows.
First of all, anti-rat rabbit serum was dissolved in such an amount in an 0.5% solution of Evans blue as to obtain a 15% solution of the serum. The thus obtained serum solution was injected intradermally in an 0.05 ml dose into each of 2 sites on one side of the back of each of the rats, while an 0.5% solution of Evans blue in saline solution was also injected similarly in an 0.05 ml dose into each of 2 sites on one side of the back thereof. Two hours later, the test animals were sacrificed and their skins were peeled. The skins so peeled were punched as the indication of the Evans blue spot to separate the edema (swollen) portions thereof which were then measured for their weights.
The strength of intumescence was calculated from the following formula: [formula] wherein Wi is the weight of the inflammatory portion and Ws is the weight of the control portion.
The antiallergic compounds of the formula (I) according to this invention were orally administered at a dose of 100 mg/kg to the rats one hour prior to the injection of the anti-rat rabbit serum.

[3] = tested on: homologous passive cutaneous anaphylaxis; assay: Homologous passive cutaneous anaphylaxis (Homolog. PCA) in rats; type: in vivo, rat (male Wistar strain); settings: 200 mg/kg oral, 2 hours prior to antigen; for inhibition at 200 mg/kg: Rattus norvegicus
Source text: In accordance with the experimental method of Tada, T et al (J. Immunol., 106, 1002, 1971), a homologous passive cutaneous anaphylaxis (Homolog. PCA) reaction test was made on male Wistar strain rats, each weighing 160-170 g. In this test, DNP-As (Dinitrophenol coupled Ascaris suum extract) was obtained by reacting dinitrophenol (DNP) with protein extracted from Ascaris suum and was used as the antigen. Anti-DNP-As rats serum was prepaed using said antigen and was used as the antibody. […] After the lapse of 48 hours, the test animals were each given 1.0 ml of the antigen solution (2.0 mg as the amount of protein) containing 0.25% Evans blue by intravenous injection thereinto. Thirty (30) minutes later, they were sacrificed by exsanguination and their skins were peeled to measure the area of PCA blueing lesion. The amounts of dye extravasated were each measured in accordance with the method proposed by Harada, M. et al (J. Pharm. Pharmacol., 23, 218, 1971).
The compounds of the formula (I) were orally administered at a dose of 200 mg/kg to the rats two hours prior to the administration of the antigen thereto.

Acute toxicity test = settings: mouse, in vivo; oral, mice, death in 3 weeks
Procedure: The compounds (of the formula (I)) to be tested were each suspended in a saline solution containing 0.5% of tragacanth gum and then orally administered to 6 ddY strain mice in a group, each mouse weighing 20-25 g. LD50 values were calculated from the death of mice in 3 weeks following the administration.

[4] = amount of dye, read-out: Inhibition rate (amount of dye extravasated)
[5] = area, read-out: Inhibition rate (area of dye extravasated)

Structure (SMILES) | Inhibition rate (histamine release) ([1]; Conc.: 10^-4 g/ml) [%] | Inhibition rate (histamine release) ([1]; Conc.: 10^-5 g/ml) [%] | Degranulation rate (mesenteric mast cells) [%] | Intumescence rate [2] [%] | inhibition at 100 mg/kg [2] [%] | Amount of dye extravasated [3] [μg/site] | Area of dye extravasated [3] [mm^2] | inhibition at 200 mg/kg [3, 4] [%] | inhibition at 200 mg/kg [3, 5] [%] | LD50 at 504 h (Acute toxicity test) [mg/kg]
CCCCC[C@H]1CC[C@H](C(=O)O)CC1 [Compound 2, trans-4-n-pentylcyclohexanecarboxylic acid] | 92.2 | 83.4 | 74.96 ± 2.91 | 25.00 ± 2.77 | 41.3 | 2.49 ± 0.29 | 67.20 ± 2.57 | 82.7 | 32.2 | > 2000
CCCC[C@H]1CC[C@H](C(=O)O)CC1 [Compound 1, trans-4-n-butylcyclohexanecarboxylic acid] | 83.9 | 9.2 | 71.45 ± 5.85 | 29.81 ± 7.17 | 30 | 5.17 ± 0.32 | 76.87 ± 2.68 | 64 | 22.4 | > 2000
